# Patent US9695155B2, “Herbicidal substituted pyrimidinyloxy benzene compounds” (E. I. DU PONT DE NEMOURS AND COMPANY, priority 2013, dated 2017)
# Tests used:
# morningglory [1] = test: Test A preemergence; assay type: in vivo, Ipomoea spp.; conditions: for Morningglory plant response rating (0 to 100 scale): 125 g ai/ha
# Summary of the method: (§1)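 Pre- and postemergence greenhouse screen. Soil: loam + sand. Spray carrier: solvent mixture, non-phytotoxic, with surfactant. Post timing at 1–2 leaves, height 2–10 cm. Readout: visual injury on a 0–100 scale roughly 10 days after application, untreated plants as reference.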
# large (Lg) crabgrass [2] = test: Test A postemergence; assay type: in vivo, Digitaria sanguinalis; conditions: for Crabgrass, Large plant response rating: 125 g ai/ha
# Summary of the method: as §1
# giant foxtail [3] = test: Test A preemergence; assay type: in vivo, Setaria faberii; conditions: for Foxtail, Giant plant response rating (0 to 100 scale): 125 g ai/ha
# Summary of the method: as §1
# morningglory [4] = test: Test A postemergence; assay type: in vivo, Ipomoea spp.; conditions: for Morningglory plant response rating: 125 g ai/ha
# Summary of the method: as §1
# pigweed [5] = test: Test A preemergence; assay type: in vivo, Amaranthus retroflexus; conditions: for Pigweed plant response rating (0 to 100 scale): 125 g ai/ha
# Summary of the method: as §1
# barnyardgrass [6] = test: Test A postemergence; assay type: in vivo, Echinochloa crus-galli; conditions: for Barnyardgrass plant response rating: 125 g ai/ha
# Summary of the method: as §1
# large (Lg) crabgrass [7] = test: Test A preemergence; assay type: in vivo, Digitaria sanguinalis; conditions: for Crabgrass, Large plant response rating (0 to 100 scale): 125 g ai/ha
# Summary of the method: as §1
# barnyardgrass [8] = test: Test A preemergence; assay type: in vivo, Echinochloa crus-galli; conditions: for Barnyardgrass plant response rating (0 to 100 scale, 0 is no effect, 100 is complete control): 125 g ai/ha
# Summary of the method: as §1
# velvetleaf [9] = test: Test A postemergence; assay type: in vivo, Abutilon theophrasti; conditions: for Velvetleaf plant response rating: 125 g ai/ha
# Summary of the method: as §1
# pigweed [10] = test: Test A postemergence; assay type: in vivo, Amaranthus retroflexus; conditions: for Pigweed plant response rating: 125 g ai/ha
# Summary of the method: as §1
# rice = test: Test B flooded paddy test; assay type: in vivo, Oryza sativa; conditions: Flood, 250 g ai/ha; 0 to 100 scale where 0 is no effect and 100 is complete control
# Summary of the method: (§2)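 Visual ratings on a 0 to 100 scale, where 100 means complete control, compared treated plants with controls after 13 to 15 days in a greenhouse. Treatment went into paddy water 3 cm deep over the soil, applied to plants at the 2-leaf stage.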
# Heteranthera limosa = test: Test B flooded paddy test; assay type: in vivo; conditions: Flood, 250 g ai/ha; 0 to 100 scale where 0 is no effect and 100 is complete control
# Summary of the method: as §2
# wheat [11] = test: Test A preemergence; assay type: in vivo, Triticum aestivum; conditions: for Wheat plant response rating (0 to 100 scale): 125 g ai/ha
# Summary of the method: as §1
# sedge, umbrella = test: Test B flooded paddy test; assay type: in vivo, Cyperus difformis; conditions: Flood, 250 g ai/ha; 0 to 100 scale where 0 is no effect and 100 is complete control
# Summary of the method: as §2
# wheat [12] = test: Test A postemergence; assay type: in vivo, Triticum aestivum; conditions: for Wheat plant response rating: 125 g ai/ha
# Summary of the method: as §1
# corn [13] = test: Test A postemergence; assay type: in vivo, Zea mays; conditions: for Corn plant response rating: 125 g ai/ha
# Summary of the method: as §1
# giant foxtail [14] = test: Test A postemergence; assay type: in vivo, Setaria faberii; conditions: for Foxtail, Giant plant response rating: 125 g ai/ha
# Summary of the method: as §1
# corn [15] = test: Test A preemergence; assay type: in vivo, Zea mays; conditions: for Corn plant response rating (0 to 100 scale): 125 g ai/ha
# Summary of the method: as §1
# barnyardgrass [16] = test: Test B flooded paddy test; assay type: in vivo, Echinochloa crus-galli; conditions: Flood, 250 g ai/ha; 0 to 100 scale where 0 is no effect and 100 is complete control
# Summary of the method: as §2
# velvetleaf [17] = test: Test A preemergence; assay type: in vivo, Abutilon theophrasti; conditions: for Velvetleaf plant response rating (0 to 100 scale): 125 g ai/ha
# Summary of the method: as §1
# [18] = 500 g ai/ha, 0 to 100 scale where 0 is no effect and 100 is complete control
# [19] = 0 to 100 scale where 0 is no effect and 100 is complete control
# [20] = 1000 g ai/ha, 0 to 100 scale, 0 no effect, 100 complete control, approx. 10 days
# [21] = 1000 g ai/ha, 0 to 100 scale, 0 no effect, 100 complete control
SMILES,Morningglory plant response rating (0 to 100 scale) (morningglory [1]),Morningglory plant response rating (morningglory [1]; [18]),"Crabgrass, Large plant response rating (large (Lg) crabgrass [2]; [19])","Plant response rating, Crabgrass, Large (large (Lg) crabgrass [2]; [18])","Foxtail, Giant plant response rating (0 to 100 scale) (giant foxtail [3])","Foxtail, Giant plant response rating (giant foxtail [3]; [18])",Morningglory plant response rating (morningglory [4]; [19]),"Plant response rating, Morningglory (morningglory [4]; [18])",Pigweed plant response rating (0 to 100 scale) (pigweed [5]),Pigweed plant response rating (pigweed [5]; [18]),Barnyardgrass plant response rating (barnyardgrass [6]; [19]),"Plant response rating, Barnyardgrass (barnyardgrass [6]; [18])","Crabgrass, Large plant response rating (0 to 100 scale) (large (Lg) crabgrass [7])","Crabgrass, Large plant response rating (large (Lg) crabgrass [7]; [18])","Barnyardgrass plant response rating (0 to 100 scale, 0 is no effect, 100 is complete control) (barnyardgrass [8])",Barnyardgrass plant response rating (barnyardgrass [8]; [18]),"Plant response rating, Rice (rice)","Plant response rating, Ducksalad (Heteranthera limosa)","Plant response rating, Sedge, Umbrella (sedge, umbrella)","Plant response rating, Barnyardgrass (barnyardgrass [16])",further results
FC(F)c1cccc(Oc2ncc(Cl)cn2)c1-n1cc(Cl)cn1 [Compound 209],10,70,70,90,100,100,50,90,100,100,40,100,100,100,60,100,0,75,60,30,"Velvetleaf plant response rating (velvetleaf [9]; [19]): 100; Plant response rating, Velvetleaf (velvetleaf [9]; [18]): 100; Pigweed plant response rating (pigweed [10]; [19]): 100; Plant response rating, Pigweed (pigweed [10]; [18]): 100; Wheat plant response rating (0 to 100 scale) (wheat [11]): 0; Wheat plant response rating (wheat [11]; [18]): 20; Wheat plant response rating (wheat [12]; [19]): 0; Plant response rating, Wheat (wheat [12]; [18]): 70; Corn plant response rating (corn [13]; [19]): 30; Plant response rating, Corn (corn [13]; [18]): 70; Foxtail, Giant plant response rating (giant foxtail [14]; [19]): 70; Plant response rating, Foxtail, Giant (giant foxtail [14]; [18]): 90; Corn plant response rating (0 to 100 scale) (corn [15]): 0; Corn plant response rating (corn [15]; [18]): 20; Velvetleaf plant response rating (0 to 100 scale) (velvetleaf [17]): 90; Velvetleaf plant response rating (velvetleaf [17]; [18]): 90"
FC(F)c1cccc(Oc2ncc(Br)cn2)c1-n1cc(Cl)cn1 [Compound 210],0,0,40,70,100,100,20,30,100,100,20,40,100,100,10,70,15,75,60,0,"Velvetleaf plant response rating (velvetleaf [9]; [19]): 60; Plant response rating, Velvetleaf (velvetleaf [9]; [18]): 80; Pigweed plant response rating (pigweed [10]; [19]): 100; Plant response rating, Pigweed (pigweed [10]; [18]): 100; Wheat plant response rating (0 to 100 scale) (wheat [11]): 0; Wheat plant response rating (wheat [11]; [18]): 0; Wheat plant response rating (wheat [12]; [19]): 0; Plant response rating, Wheat (wheat [12]; [18]): 0; Corn plant response rating (corn [13]; [19]): 10; Plant response rating, Corn (corn [13]; [18]): 30; Foxtail, Giant plant response rating (giant foxtail [14]; [19]): 30; Plant response rating, Foxtail, Giant (giant foxtail [14]; [18]): 60; Corn plant response rating (0 to 100 scale) (corn [15]): 0; Corn plant response rating (corn [15]; [18]): 0; Velvetleaf plant response rating (0 to 100 scale) (velvetleaf [17]): 20; Velvetleaf plant response rating (velvetleaf [17]; [18]): 60"
COC(=O)c1cccc(Oc2ncc(Cl)cn2)c1-n1cc(Br)cn1 [Compound 211],20,70,10,50,100,100,90,100,90,100,10,50,80,100,0,60,0,0,0,0,"Velvetleaf plant response rating (velvetleaf [9]; [19]): 50; Plant response rating, Velvetleaf (velvetleaf [9]; [18]): 90; Pigweed plant response rating (pigweed [10]; [19]): 90; Plant response rating, Pigweed (pigweed [10]; [18]): 100; Wheat plant response rating (0 to 100 scale) (wheat [11]): 0; Wheat plant response rating (wheat [11]; [18]): 0; Wheat plant response rating (wheat [12]; [19]): 0; Plant response rating, Wheat (wheat [12]; [18]): 0; Corn plant response rating (corn [13]; [19]): 0; Plant response rating, Corn (corn [13]; [18]): 0; Foxtail, Giant plant response rating (giant foxtail [14]; [19]): 30; Plant response rating, Foxtail, Giant (giant foxtail [14]; [18]): 60; Corn plant response rating (0 to 100 scale) (corn [15]): 0; Corn plant response rating (corn [15]; [18]): 0; Velvetleaf plant response rating (0 to 100 scale) (velvetleaf [17]): 60; Velvetleaf plant response rating (velvetleaf [17]; [18]): 90"
CC(=O)Oc1cccc(Oc2ncc(Cl)cn2)c1-n1cc(Cl)cn1 [Compound 216],–,–,–,–,–,–,–,–,–,–,–,–,–,–,–,–,0,0,0,0,"Morningglory plant response rating (morningglory [1]; [20]): 0; Plant response rating, Crabgrass, Large (large (Lg) crabgrass [2]; [21]): 40; Foxtail, Giant plant response rating (giant foxtail [3]; [20]): 40; Plant response rating, Morningglory (morningglory [4]; [21]): 40; Pigweed plant response rating (pigweed [5]; [20]): 100; Plant response rating, Barnyardgrass (barnyardgrass [6]; [21]): 0; Crabgrass, Large plant response rating (large (Lg) crabgrass [7]; [20]): 70; Barnyardgrass plant response rating (barnyardgrass [8]; [20]): 30; Plant response rating, Velvetleaf (velvetleaf [9]; [21]): 100; Plant response rating, Pigweed (pigweed [10]; [21]): 100; Wheat plant response rating (wheat [11]; [20]): 0; Plant response rating, Wheat (wheat [12]; [21]): 0; Plant response rating, Corn (corn [13]; [21]): 0; Plant response rating, Foxtail, Giant (giant foxtail [14]; [21]): 30; Corn plant response rating (corn [15]; [20]): 0; Velvetleaf plant response rating (velvetleaf [17]; [20]): 30"
N#Cc1cnc(Oc2ccccc2-n2cccn2)nc1 [Compound 226],0,0,0,0,0,0,0,0,0,0,0,0,0,0,0,0,0,0,0,0,"Velvetleaf plant response rating (velvetleaf [9]; [19]): 0; Plant response rating, Velvetleaf (velvetleaf [9]; [18]): 10; Pigweed plant response rating (pigweed [10]; [19]): 0; Plant response rating, Pigweed (pigweed [10]; [18]): 10; Wheat plant response rating (0 to 100 scale) (wheat [11]): 0; Wheat plant response rating (wheat [11]; [18]): 0; Wheat plant response rating (wheat [12]; [19]): 0; Plant response rating, Wheat (wheat [12]; [18]): 0; Corn plant response rating (corn [13]; [19]): 0; Plant response rating, Corn (corn [13]; [18]): 0; Foxtail, Giant plant response rating (giant foxtail [14]; [19]): 0; Plant response rating, Foxtail, Giant (giant foxtail [14]; [18]): 0; Corn plant response rating (0 to 100 scale) (corn [15]): 0; Corn plant response rating (corn [15]; [18]): 0; Velvetleaf plant response rating (0 to 100 scale) (velvetleaf [17]): 0; Velvetleaf plant response rating (velvetleaf [17]; [18]): 0"
